Each structure is given as a SMILES string. Where two headings read alike, the source gives them in different places. Where a SMILES comes first, the peptide text is derived from it. The star is where a group is joined. Undecanoyl = CCCCCCCCCCC(=O)*; Cbz = O=C(OCc1ccccc1)*; Butyryl = CCCC(=O)*; NHiBu = CC(C)CN*; NHPr = CCCN*

One may read the Ki as the equilibrium dissociation constant of an inhibitor or competing ligand from its target.

One experiment deals with pancreatic elastase (UniProt P00772). In words: Inhibition of pancreatic elastase (PE), Ki with synthetic nitroanilide substrates. The class given is biochemical.
In another experiment the target is T1, leucocytal elastase (Homo sapiens, UniProt P08246).
T1 sequence (P08246 30-267): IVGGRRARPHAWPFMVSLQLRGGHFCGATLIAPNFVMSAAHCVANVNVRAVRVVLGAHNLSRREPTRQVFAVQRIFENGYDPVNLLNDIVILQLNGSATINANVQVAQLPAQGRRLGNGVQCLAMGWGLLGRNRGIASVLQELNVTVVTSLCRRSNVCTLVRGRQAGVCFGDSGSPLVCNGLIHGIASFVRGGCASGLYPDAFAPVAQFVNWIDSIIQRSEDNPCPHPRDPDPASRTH
In words: Inhibition of leucocytal elastase (LE), Ki with synthetic nitroanilide substrate. The class given is biochemical. The following applies: substrate Glt-(Ala)3-Val-Nan; for Ki: read-out: Inhibition constant Ki, LE, Glt--(Ala)3--Val--Nan.

The mark [1] stands for this setting: substrate Glt-(Ala)4-Nan, read-out: Inhibition constant Ki, PE, Glt--(Ala)4--Nan.
Setting [2] is: substrate Suc-(Ala)4-Nan, read-out: Inhibition constant Ki, PE, Suc--(Ala)4--Nan.

Sequence of pancreatic elastase (P00772 27-266): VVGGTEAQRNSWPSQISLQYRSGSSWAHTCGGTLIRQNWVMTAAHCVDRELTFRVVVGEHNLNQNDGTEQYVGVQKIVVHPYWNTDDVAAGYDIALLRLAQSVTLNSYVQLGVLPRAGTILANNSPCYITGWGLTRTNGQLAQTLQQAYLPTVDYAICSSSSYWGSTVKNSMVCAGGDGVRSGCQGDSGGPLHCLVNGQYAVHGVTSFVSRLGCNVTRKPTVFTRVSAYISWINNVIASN

Take `CCNC(=O)[C@H](C)NC(=O)[C@H](C)NC(=O)[C@@H]1CCCN1C(=O)[C@H](CC(=O)O)NC(C)=O` [Ac--Asp--Pro--Ala--Ala--NH--Et, N^α -Acetylaspartyl-prolyl-alanyl-alanine ethylamide] (Ac-DPAA-NHEt): the Ki on pancreatic elastase (setting [1]) was found to be 34 µM; at pancreatic elastase (setting [2]), 25 µM; on leucocytal elastase, 1000 µM.
With `CCCC(=O)N[C@@H](CC(=O)O)C(=O)N[C@@H](C)C(=O)N[C@@H](C)C(=O)N1CCC[C@H]1C(=O)NCC(C)C` [Btr--Asp--Ala--Ala--Pro--NH--iBu, N^α -Butyrylaspartyl-alanyl-alanyl-proline isobutylamide] (Butyryl-DAAP-NHiBu), the values for the inhibition constant Ki on pancreatic elastase (setting [1]), on pancreatic elastase (setting [2]) and at leucocytal elastase were 120 µM, 120 µM and 136 µM, respectively.
Consider `CCCNC(=O)[C@@H]1CCCN1C(=O)[C@H](C)NC(=O)[C@H](C)NC(=O)[C@H](CCC(=O)O)NC(=O)CCC` [Btr--Glu--Ala--Ala--Pro--NH--Pr] (Butyryl-EAAP-NHPr), for which the values for the inhibition constant Ki at pancreatic elastase (setting [1]), at pancreatic elastase (setting [2]) and on leucocytal elastase were 193 µM, 178 µM and 180 µM, respectively.
For the compound `CCCCCCCCCC=CCC(CC(=O)O)C(=O)N[C@@H](C)C(=O)N[C@@H](C)C(=O)N[C@@H](C)C(=O)NCC` (some centres unmarked) [Dde--Ala--Ala--Ala--NH--Et, N-(2-Dodecenylsuccinyl)alanyl-alanyl-alanine ethylamide], the figures for the inhibition constant (Ki) at pancreatic elastase (setting [1]) and at pancreatic elastase (setting [2]) were 1.8 µM and 2.5 µM, respectively. The “Inhibition constant Ki, LE, Glt--(Ala)3--Val--Nan” value on leucocytal elastase is given as “no inhibition”.
Consider `CCCCCCCCCC=CCC(CC(=O)O)C(=O)N[C@@H](C)C(=O)N[C@@H](C)C(=O)N[C@@H](C)C(=O)NCC(C)C` (some centres unmarked) [Dde--Ala--Ala--Ala--NH--iBu], for which the Ki amounted to 93 µM at pancreatic elastase (setting [1]), 99 µM at pancreatic elastase (setting [2]) and 515 µM on leucocytal elastase.
Taken in the same sequence, the figures for `CCCCCCCCCC=CCC(CC(=O)O)C(=O)N[C@@H](C)C(=O)N[C@@H](C)C(=O)N1CCC[C@H]1C(=O)NCCC` (some centres unmarked) [Dde--Ala--Ala--Pro--NH--Pr, N-(2-Dodecenylsuccinyl)alanyl-alanyl-proline propylamide] were 0.6 µM, 0.5 µM and 100 µM.
In the case of `CCCCCCCCCCC(=O)N[C@@H](CC(=O)O)C(=O)N[C@@H](C)C(=O)N[C@@H](C)C(=O)N1CCC[C@H]1C(=O)NCC` [UDA--Asp--Ala--Ala--Pro--NH--Et, N^α -Undecanoylaspartyl-alanyl-alanyl-proline ethylamide] (Undecanoyl-DAAP-NHEt), the Ki at pancreatic elastase (setting [1]) was determined as 5.4 µM; at leucocytal elastase it was 12 µM.
Consider `CCNC(=O)[C@H](C)NC(=O)[C@H](C)NC(=O)[C@H](C)NC(=O)[C@H](CCC(=O)O)NC(=O)OCc1ccccc1` [Z--Glu--Ala--Ala--Ala--NH--Et] (Cbz-EAAA-NHEt), for which the Ki at pancreatic elastase (setting [1]) amounted to 173 µM; at pancreatic elastase (setting [2]) it was 28 µM; at leucocytal elastase, 720 µM.

These data come from patent publication US4528133A, “Biologically active tripeptide and tetrapeptide alkylamides, and method for the preparation thereof” (SPOFA, spojene podniky pro zdravotnickou vyrobu, priority 1982, dated 1985).
